Results as given in patent US20140322252A1, “Peptides for Treating Alzheimers's Disease and Related Conditions” (priority 2013, published 2014).

Experiments:
[1] = Pharmacokinetic study of RAP-103 in male Sprague Dawley rat, LC-MS/MS; format: in vivo
Experimental: A pharmacokinetic study of all-D-TTNYT (SEQ ID NO:2) (RAP-103) following intravenous and oral administration was conducted at a target dose level of 1 mg/kg in the male Sprague Dawley rat. The concentration of RAP-103 in each plasma and brain sample was measured using a suitable LC-MS/MS assay. The assay used was a research grade assay (RGA-1) which was established by assessing the accuracy, precision and the linearity of the method. Plasma concentrations generated were used to evaluate the pharmacokinetic parameters of all-D-TTNYT (SEQ ID NO:2) (RAP-103).
The dose formulation was administered intravenously to some animals as a slow bolus over ca 30 s via the tail vein and to a different group of animals orally via gastric gavage at a target dose volume of 1 mL/kg, to achieve a target dose level of 1 mg/kg. The dose volume administered was calculated according to the bodyweight of the animal on the day of dosing. The weight of administered dose was recorded. […] Results of the study show oral boavailibity of the all-D-peptide was achieved, results are in Table 1

CCR2 = CCR2 (Homo sapiens, UniProt P41597); conditions: published, Padi 2012; cited from earlier work
[2] = test system: rats with partial ligation of the sciatic nerve; conditions: cited from earlier work
CCR8 = target: T1, CCR8 (Homo sapiens, UniProt P51685); format: cell-based; conditions: for inhibition of CCL1 (I-309) mediated chemotaxis / CCR8 function: M2 type monocyte derived macrophages, CCL1 1 nM
T1 construct: required maturation with M-CSF for 48 hrs to up-regulate expression of CCR8; endogenous in cells; host or cells: human monocytes isolated by Ficoll-Percoll gradient, matured with M-CSF for 48 hours (M2-type macrophages)
Experimental: Human monocytes isolated by Ficoll-Percoll gradient were cultured in complete growth medium (RPMI1640, supplemented with 10% FBS and 4 mM L-glutamine) in presence of M-CSF for 48 hours. Resting monocytes, as freshly isolated, were not responsive to CCL1, which required maturation with M-CSF for 48 hrs to up-regulate expression of CCR8, so-called “M2” type macrophages. […] The data represent the mean of triplicate determinations of a representative experiment.

[3] = test system: cofilin-actin rods in hippocampal neurons
[4] = test system: APPSwDI/NOS2−/− transgenic mouse; conditions: 0.4 mg/kg p.o. once-a-day, 9 months of age, RAWM
Experimental: We tested yet a further all-D-amino acid modified peptide for oral bioavailability and protection to memory losses in an animal AD model.
Both Transgenic (CVN) and wild-type (WT) mice were used: WT mice were treated orally (p.o.) with vehicle; while CVN mice treated p.o. with either vehicle or treated p.o. with RAP-310, 0.4 mg/kg. At the age of 4.5 to 5 months the mice were subjected to once-a-day oral vehicle or RAP-310. After 1 month of treatment, starting at the age of 6 months, the mice were subjected to radial arm water maze testing.

[5] = test system: CCL2 (MCP-1) chemotaxis of human monocytes; assay: CCL2-mediated human monocyte chemotaxis (FIG. 1); format: cell-based; conditions: FIG. 1, direct comparison among all RAPs
Description: Triplicate determinations were made and results are expressed as the mean plus or minus SEM. The experiment shown is a direct comparison among all RAPs. Statistical analysis was by unpaired t-test, with significance set at the p<0.01 (*) level for difference from CCL2 only chemotaxis.

LPS-infused rats = conditions: 0.01 mg/kg, s.c., 14 days, cited from earlier work
[6] = test system: NBM lesioned aged Sprague-Dawley rats; conditions: bilateral NBM lesions, 1 mg IP daily for 5 months; cited from earlier work

T1 sequence (P51685 whole entry): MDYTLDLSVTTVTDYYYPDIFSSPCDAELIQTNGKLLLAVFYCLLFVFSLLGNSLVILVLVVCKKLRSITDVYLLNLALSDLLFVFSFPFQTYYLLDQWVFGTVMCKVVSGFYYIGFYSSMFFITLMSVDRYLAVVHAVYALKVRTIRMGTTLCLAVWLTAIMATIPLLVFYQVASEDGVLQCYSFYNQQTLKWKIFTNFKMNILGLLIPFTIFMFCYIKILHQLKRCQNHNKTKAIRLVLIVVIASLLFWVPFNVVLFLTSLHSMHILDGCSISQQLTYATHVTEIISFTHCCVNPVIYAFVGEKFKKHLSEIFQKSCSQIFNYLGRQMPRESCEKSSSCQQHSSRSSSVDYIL
Sequence of CCR2 (P41597 whole entry): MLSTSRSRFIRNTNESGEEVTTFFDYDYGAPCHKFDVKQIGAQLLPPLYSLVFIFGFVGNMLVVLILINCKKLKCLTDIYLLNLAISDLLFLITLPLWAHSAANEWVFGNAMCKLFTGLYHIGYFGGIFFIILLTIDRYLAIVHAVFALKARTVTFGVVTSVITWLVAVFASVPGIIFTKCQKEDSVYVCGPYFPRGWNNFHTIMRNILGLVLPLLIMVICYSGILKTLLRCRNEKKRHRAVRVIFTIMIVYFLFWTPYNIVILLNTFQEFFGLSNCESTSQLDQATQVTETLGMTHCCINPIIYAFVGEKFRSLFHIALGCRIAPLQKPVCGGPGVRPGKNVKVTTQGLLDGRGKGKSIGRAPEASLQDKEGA

| Molecule | concentration in male rat plasma ([1]; intravenous, 1 mg/kg, nominal time 0.5 h, individual animals) [µg/mL] | time of peak plasma levels ([1]; rat, 1 mg/kg) [min] | detection in plasma ([1]; rat, 5 minutes (0.083 hrs) after dosing, continues at 1 hr) | activity to block MCP-1 human monocyte chemotaxis (CCR2) | already established hypersensitivity ([2]; 0.2-1 mg/kg, days 8 to 12) | development of thermal hyperalgesia ([2]; oral 0.05-1 mg/kg for 7 days) | mechanical allodynia ([2]; oral 0.05-1 mg/kg for 7 days) | spinal microglial activation and monocyte infiltration ([2]; peripheral nerve injury) | potency to block CCR8 compared with DAPTA (CCR8; FIG. 3) | inhibition of CCL1 (I-309) mediated chemotaxis / CCR8 function (CCR8) | EC50 [3] [pM] | block of TNFα caused cofilin-actin rod stress response [3] | less errors in block 5 compared to CVN vehicle treated mice [4] [%] | less errors in sum scores for Day 1 compared to CVN vehicle treated mice [4] [%] | potency to block CCL2 (MCP-1) chemotaxis [5] | potency to block CCL2 (MCP-1) chemotaxis ([5]; listed as RAP-101) | number of activated microglia and astrocytes (LPS-infused rats; vs vehicle) | number of immunoreactive cells expressing NfKb (LPS-infused rats) | lesion-induced decreases in cortical thickness [6] | loss of large neurons in layer V [6] |
| --- | --- | --- | --- | --- | --- | --- | --- | --- | --- | --- | --- | --- | --- | --- | --- | --- | --- | --- | --- | --- |
| C[C@H](O)[C@@H](N)C(=O)N[C@@H](C(=O)N[C@H](CC(N)=O)C(=O)N[C@H](Cc1ccc(O)cc1)C(=O)N[C@@H](C(=O)O)[C@H](C)O)[C@H](C)O [RAP-103, All-D-TTNYT] | 0.561 | 10 to 15 | detected | block | reverses | inhibits | fully prevents | reduce |  |  |  |  |  |  |  |  |  |  |  |  |
| C[C@H](O)[C@@H](NC(=O)[C@@H](Cc1ccc(O)cc1)NC(=O)[C@@H](CC(N)=O)NC(=O)[C@H](NC(=O)[C@H](NC(=O)[C@H](NC(=O)[C@@H](CO)NC(=O)[C@@H](C)N)[C@H](C)O)[C@H](C)O)[C@H](C)O)C(=O)O [RAP-310] |  |  |  |  |  |  |  |  | comparable potency | Inhibit | ~0.1 | comparably blocked | 50 | 30 |  |  |  |  |  |  |
| D-ala1-STTTNYT-NH2 [DAPTA] |  |  |  |  |  |  |  |  |  | Inhibit |  |  |  |  | most potent | greater potency | dramatically reduced | reduced | prevented or attenuated | attenuated |
